Key:
[1] = molecular target: T1, Jack bean urease (Canavalia ensiformis, UniProt P07374); test: cell-free pH-based (phenol red) urease activity assay; delay of half-maximal absorbance at […] inhibitor (ΔT50); assay type: biochemical
[2] = molecular target: T1, Jack bean urease; test: cell-free pH-based (phenol red) urease activity assay; ΔT50 at […] inhibitor; assay type: biochemical

T1 sequence (P07374 whole entry, looked up): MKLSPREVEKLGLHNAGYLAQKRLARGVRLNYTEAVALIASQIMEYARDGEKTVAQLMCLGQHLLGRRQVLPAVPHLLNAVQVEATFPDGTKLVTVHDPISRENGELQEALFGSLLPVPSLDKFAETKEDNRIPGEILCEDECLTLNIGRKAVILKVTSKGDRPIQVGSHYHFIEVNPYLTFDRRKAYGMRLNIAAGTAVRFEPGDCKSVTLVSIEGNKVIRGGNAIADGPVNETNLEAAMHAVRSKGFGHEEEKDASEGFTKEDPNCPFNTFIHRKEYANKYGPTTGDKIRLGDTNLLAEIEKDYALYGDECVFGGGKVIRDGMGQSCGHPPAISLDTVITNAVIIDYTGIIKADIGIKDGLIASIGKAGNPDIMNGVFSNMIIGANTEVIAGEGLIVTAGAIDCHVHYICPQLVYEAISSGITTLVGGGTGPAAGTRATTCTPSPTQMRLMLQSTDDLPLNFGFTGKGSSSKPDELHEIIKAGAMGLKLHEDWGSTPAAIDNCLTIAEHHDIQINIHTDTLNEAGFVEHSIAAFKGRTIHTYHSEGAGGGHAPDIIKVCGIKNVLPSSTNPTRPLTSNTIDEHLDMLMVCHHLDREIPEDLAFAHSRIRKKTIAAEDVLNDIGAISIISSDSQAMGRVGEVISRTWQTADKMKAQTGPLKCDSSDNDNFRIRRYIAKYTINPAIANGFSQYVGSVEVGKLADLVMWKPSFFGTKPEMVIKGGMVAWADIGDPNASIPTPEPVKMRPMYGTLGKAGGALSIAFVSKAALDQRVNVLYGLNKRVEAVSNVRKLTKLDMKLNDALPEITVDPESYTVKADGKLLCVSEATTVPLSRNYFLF

| Compound | cell-free pH-based (phenol red) urease activity assay; delay of half-maximal abs [1] | cell-free pH-based (phenol red) urease activity assay; ΔT50 at 0.1 mM inhibitor [2] |
| --- | --- | --- |
| CCCCCC#CC(=O)NO [2-octynoHA, 2-octynohydroxamic acid] | 47.9 ± 2.6 min | – |
| CC(=O)NO [AHA, acetohydroxamic acid] | – | 2.8 ± 0.6 min |
| CCCCCCCC(=O)NO [OHA, octanohydroxamic acid] | – | 3.0 ± 1.6 min |

— article PMC10933438, “Inhibition of urease-mediated ammonia production by 2-octynohydroxamic acid in hepatic encephalopathy” (Nature Communications, 2024)
